# Laboratory results taken from paper PMC8296573, “Synthesis and Biological Evaluation of Fingolimod Derivatives as Antibacterial Agents” (ACS Omega, 2021).
# Like-named read-outs stand apart in the source and are kept apart here.
# Legend:
# S. aureus ATCC 25923 [1] = test: Antibacterial activity, pre-exposure (planktonic cells and biofilm formation); format: cell-based, Staphylococcus aureus; conditions: for MIC / inhibition at 5 µM / inhibition at 10 µM / inhibition at 15 µM / inhibition at 25 µM: Staphylococcus aureus, ATCC25923; for inhibition at 5 µM / inhibition at 10 µM / inhibition at 15 µM / inhibition at 25 µM / Average inhibition %, biofilms viability / Average inhibition %, planktonic cells viability: pre-exposure, ± SD
# In short: (§1)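 Read-outs were turbidity and resazurin reduction for planktonic cells, and resazurin followed by crystal violet biomass (A595) for biofilms. Compounds were present from inoculation onward, with 18 h aerobic growth at 37 °C under shaking.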
# S. aureus ATCC 25923 [2] = test: Antibacterial activity, post-exposure on preformed 18-h-old biofilms; format: cell-based, Staphylococcus aureus; conditions: ± SD; for inhibition at 25 µM / inhibition at 50 µM / inhibition at 100 µM / inhibition at 200 µM: Staphylococcus aureus; for inhibition at 25 µM: ATCC25923, 25 µM; for inhibition at 50 µM: ATCC25923, 50 µM; for inhibition at 100 µM: ATCC25923, 100 µM; for inhibition at 200 µM: ATCC25923, 200 µM
# In short: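 Biofilms grown 18 h without compound, medium then replaced and compound added for a further 24 h. Planktonic OD and resazurin (20 μM final) fluorescence (ex 560/em 590 nm) read; washed biofilms stained with 20 μM resazurin 30 min at 37 °C, then ethanol-fixed and crystal violet-stained, absorbance 595 nm.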
# A. baumannii NCTC 13423 = test: Antibacterial activity, pre-exposure; format: cell-based, Acinetobacter baumannii; conditions: for Average inhibition %, biofilms viability / Average inhibition %, planktonic cells viability / inhibition at 10 µM / inhibition at 15 µM / inhibition at 25 µM / inhibition at 50 µM: A. baumannii NCTC 13423, pre-exposure, ± SD; for inhibition at 10 µM / inhibition at 15 µM / inhibition at 25 µM / inhibition at 50 µM / MIC: Acinetobacter baumannii, NCTC13423
# In short: as §1
# P. aeruginosa ATCC 9027 = test: Antibacterial activity, pre-exposure; format: cell-based, Pseudomonas aeruginosa; conditions: for Average inhibition %, biofilms viability / Average inhibition %, planktonic cells viability / inhibition at 50 µM / inhibition at 100 µM / inhibition at 150 µM / inhibition at 200 µM: P. aeruginosa ATCC 9027, pre-exposure, ± SD; for inhibition at 50 µM / inhibition at 100 µM / inhibition at 150 µM / inhibition at 200 µM: Pseudomonas aeruginosa, ATCC9027
# In short: as §1
# [3] = 10 µM, read-out: Average inhibition %, biofilms biomass
# [4] = 10 µM, read-out: Average inhibition %, planktonic cells turbidity
# [5] = 15 µM, read-out: Average inhibition %, biofilms biomass
# [6] = 15 µM, read-out: Average inhibition %, planktonic cells turbidity
# [7] = 25 µM, read-out: Average inhibition %, biofilms biomass
# [8] = 25 µM, read-out: Average inhibition %, planktonic cells turbidity
# [9] = read-out: Average inhibition %, biofilms biomass
# [10] = read-out: Average inhibition %, planktonic cells turbidity
# [11] = 50 µM, read-out: Average inhibition %, biofilms biomass
# [12] = 50 µM, read-out: Average inhibition %, planktonic cells turbidity
smiles,measurement,setting,value
"CCCCCCCCc1ccc2nc(CCC(N)(CO)CO)ccc2c1 [Compound 80, 2-Amino-2-[2-(6-octylquinolin-2-yl)ethyl]propane-1,3-diol]",MIC,"S. aureus ATCC 25923 [1]; lowest concentration with no visible growth (>90% inhibition of turbidity and viability of planktonic cells), 18 h, read-out: MIC S. aureus ATCC 25923",10 µM
same,inhibition at 5 µM,"S. aureus ATCC 25923 [1]; 5 µM, read-out: Average inhibition %, biofilms biomass",24.2 ± 6.6%
same,inhibition at 5 µM,"S. aureus ATCC 25923 [1]; 5 µM, read-out: Average inhibition %, planktonic cells turbidity",43 ± 17%
same,inhibition at 10 µM,S. aureus ATCC 25923 [1]; [3],97.6 ± 1%
same,inhibition at 10 µM,S. aureus ATCC 25923 [1]; [4],99 ± 0.7%
same,inhibition at 15 µM,S. aureus ATCC 25923 [1]; [5],97.3 ± 0.6%
same,inhibition at 15 µM,S. aureus ATCC 25923 [1]; [6],99.5 ± 0.3%
same,inhibition at 25 µM,S. aureus ATCC 25923 [1]; [7],92.3 ± 1.5%
same,inhibition at 25 µM,S. aureus ATCC 25923 [1]; [8],99.1 ± 0.3%
same,MIC,S. aureus ATCC 25923 [1]; read-out: MIC (S. aureus),10 µM
same,"Average inhibition %, biofilms viability",S. aureus ATCC 25923 [1]; 5 µM,26.7 ± 15.1%
same,"Average inhibition %, planktonic cells viability",S. aureus ATCC 25923 [1]; 5 µM,13.9 ± 22.4%
same,"Average inhibition %, biofilms viability",S. aureus ATCC 25923 [1]; 10 µM,99.2 ± 1.4%
same,"Average inhibition %, planktonic cells viability",S. aureus ATCC 25923 [1]; 10 µM,99.4 ± 0%
same,"Average inhibition %, biofilms viability",S. aureus ATCC 25923 [1]; 15 µM,99.5 ± 0.5%
same,"Average inhibition %, planktonic cells viability",S. aureus ATCC 25923 [1]; 15 µM,99.5 ± 0%
same,"Average inhibition %, biofilms viability",S. aureus ATCC 25923 [1]; 25 µM,99.4 ± 0.3%
same,"Average inhibition %, planktonic cells viability",S. aureus ATCC 25923 [1]; 25 µM,99.7 ± 0%
same,"Average inhibition %, biofilms viability",S. aureus ATCC 25923 [2]; 25 µM,13.8 ± 11.7%
same,"Average inhibition %, planktonic cells viability",S. aureus ATCC 25923 [2]; 25 µM,17.5 ± 26.7%
same,"Average inhibition %, biofilms viability",S. aureus ATCC 25923 [2]; 50 µM,29.8 ± 10.2%
same,"Average inhibition %, planktonic cells viability",S. aureus ATCC 25923 [2]; 50 µM,21.5 ± 33.1%
same,"Average inhibition %, biofilms viability",S. aureus ATCC 25923 [2]; 100 µM,48.6 ± 5.2%
same,"Average inhibition %, planktonic cells viability",S. aureus ATCC 25923 [2]; 100 µM,81 ± 8%
same,"Average inhibition %, biofilms viability",S. aureus ATCC 25923 [2]; 200 µM,48.4 ± 12%
same,"Average inhibition %, planktonic cells viability",S. aureus ATCC 25923 [2]; 200 µM,93.2 ± 1.3%
same,inhibition at 25 µM,S. aureus ATCC 25923 [2]; [9],25.1 ± 16.4%
same,inhibition at 25 µM,S. aureus ATCC 25923 [2]; [10],31.7 ± 26.5%
same,inhibition at 50 µM,S. aureus ATCC 25923 [2]; [9],50.2 ± 3.2%
same,inhibition at 50 µM,S. aureus ATCC 25923 [2]; [10],26 ± 39.1%
same,inhibition at 100 µM,S. aureus ATCC 25923 [2]; [9],61.9 ± 7.7%
same,inhibition at 100 µM,S. aureus ATCC 25923 [2]; [10],64.3 ± 18.5%
same,inhibition at 200 µM,S. aureus ATCC 25923 [2]; [9],51.5 ± 9.6%
same,inhibition at 200 µM,S. aureus ATCC 25923 [2]; [10],73.4 ± 9.8%
same,"Average inhibition %, biofilms viability",A. baumannii NCTC 13423; 10 µM,0 ± 0%
same,"Average inhibition %, planktonic cells viability",A. baumannii NCTC 13423; 10 µM,7.2 ± 5.2%
same,"Average inhibition %, biofilms viability",A. baumannii NCTC 13423; 15 µM,71.9 ± 26.2%
same,"Average inhibition %, planktonic cells viability",A. baumannii NCTC 13423; 15 µM,98.9 ± 0.3%
same,"Average inhibition %, biofilms viability",A. baumannii NCTC 13423; 25 µM,101.6 ± 1.6%
same,"Average inhibition %, planktonic cells viability",A. baumannii NCTC 13423; 25 µM,99.6 ± 0.1%
same,"Average inhibition %, biofilms viability",A. baumannii NCTC 13423; 50 µM,101.8 ± 1.3%
same,"Average inhibition %, planktonic cells viability",A. baumannii NCTC 13423; 50 µM,99.5 ± 0.2%
same,inhibition at 10 µM,A. baumannii NCTC 13423; [3],1.6 ± 2.8%
same,inhibition at 10 µM,A. baumannii NCTC 13423; [4],0.8 ± 1.5%
same,inhibition at 15 µM,A. baumannii NCTC 13423; [5],53 ± 33.4%
same,inhibition at 15 µM,A. baumannii NCTC 13423; [6],96.4 ± 3%
same,inhibition at 25 µM,A. baumannii NCTC 13423; [7],84.3 ± 5.9%
same,inhibition at 25 µM,A. baumannii NCTC 13423; [8],99 ± 0.9%
same,inhibition at 50 µM,A. baumannii NCTC 13423; [11],74.7 ± 11.4%
same,inhibition at 50 µM,A. baumannii NCTC 13423; [12],98.8 ± 0.9%
same,MIC,"A. baumannii NCTC 13423; pre-exposure, Inactive = no activity up to 50 μM, > = some inhibition but no MIC reached, read-out: MIC A. baumannii NCTC 13423",15 to 25 µM
same,MIC,"A. baumannii NCTC 13423; supplementary molecular formula strings sheet, read-out: MIC (A. baumannii)",15 to 25 µM
same,"Average inhibition %, biofilms viability",P. aeruginosa ATCC 9027; 50 µM,9.8 ± 12.2%
same,"Average inhibition %, planktonic cells viability",P. aeruginosa ATCC 9027; 50 µM,39.9 ± 11%
same,"Average inhibition %, biofilms viability",P. aeruginosa ATCC 9027; 100 µM,10.5 ± 10%
same,"Average inhibition %, planktonic cells viability",P. aeruginosa ATCC 9027; 100 µM,46.1 ± 11.6%
same,"Average inhibition %, biofilms viability",P. aeruginosa ATCC 9027; 150 µM,14.3 ± 12.2%
same,"Average inhibition %, planktonic cells viability",P. aeruginosa ATCC 9027; 150 µM,22.9 ± 1.7%
same,"Average inhibition %, biofilms viability",P. aeruginosa ATCC 9027; 200 µM,15.3 ± 15.9%
same,"Average inhibition %, planktonic cells viability",P. aeruginosa ATCC 9027; 200 µM,33.1 ± 16.1%
same,inhibition at 50 µM,P. aeruginosa ATCC 9027; [11],5.2 ± 5.2%
same,inhibition at 50 µM,P. aeruginosa ATCC 9027; [12],48 ± 11.1%
same,inhibition at 100 µM,"P. aeruginosa ATCC 9027; 100 µM, read-out: Average inhibition %, biofilms biomass",0%
same,inhibition at 100 µM,"P. aeruginosa ATCC 9027; 100 µM, read-out: Average inhibition %, planktonic cells turbidity",55.5 ± 5.2%
same,inhibition at 150 µM,"P. aeruginosa ATCC 9027; 150 µM, read-out: Average inhibition %, biofilms biomass",12.1 ± 10.7%
same,inhibition at 150 µM,"P. aeruginosa ATCC 9027; 150 µM, read-out: Average inhibition %, planktonic cells turbidity",42.1 ± 13.6%
same,inhibition at 200 µM,"P. aeruginosa ATCC 9027; 200 µM, read-out: Average inhibition %, biofilms biomass",12.3 ± 19.1%
same,inhibition at 200 µM,"P. aeruginosa ATCC 9027; 200 µM, read-out: Average inhibition %, planktonic cells turbidity",55.3 ± 0.9%
same,MIC P. aeruginosa ATCC 9027,"P. aeruginosa ATCC 9027; pre-exposure, Inactive = no activity up to 200 μM, > = some inhibition but no MIC reached",Inactive
